According to US12668594B2, “TYK2 inhibitors and uses thereof” (Sudo Biosciences Limited, priority 2020, dated 2026):

Experiments:
TYK2 [1] = molecular target: T1, TYK2 (Homo sapiens, UniProt P29597); assay: HEK-Blue IFNα/β reporter assay (SEAP) for TYK2 pseudokinase inhibition; type: cell-based; details: HEK-Blue IFNα/β cells, 1 ng/mL human recombinant IFNα
In short: (§1)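 HEK-Blue cells carrying cytokine receptor and STAT3 or STAT1 SEAP reporter, pretreated 60 min with compound, then stimulated with 10 ng/mL IL-23 (22–24 h) or 1 ng/mL IFNα (16–18 h). SEAP read with QUANTI-Blue; IC50 by non-linear regression versus no-inhibitor and unstimulated controls.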

TYK2-JH1 = molecular target: T2, TYK2-JH1 (Homo sapiens, UniProt P29597); assay: HTRF-based selectivity assay, TYK2 catalytic domain; type: biochemical; details: kinase domain (JH1), ATP 20 μM
T2 construct: recombinant purified His or GST-tagged catalytic domain for each enzyme; made in house
T2 sequence (P29597 897-1176 limits assumed): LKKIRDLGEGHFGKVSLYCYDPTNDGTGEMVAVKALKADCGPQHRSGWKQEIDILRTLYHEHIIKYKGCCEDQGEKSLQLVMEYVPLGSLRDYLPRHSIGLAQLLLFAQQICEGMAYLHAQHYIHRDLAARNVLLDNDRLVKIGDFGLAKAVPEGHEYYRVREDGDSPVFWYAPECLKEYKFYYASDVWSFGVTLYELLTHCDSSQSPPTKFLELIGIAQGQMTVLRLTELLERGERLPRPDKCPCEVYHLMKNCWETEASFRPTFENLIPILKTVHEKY
Method: (§2) The ability of compounds to inhibit the activity of JAK1, JAK2, JAK3 and TYK2 is measured using a recombinant purified His or GST-tagged catalytic domain for each enzyme (JAK1, JAK2 and TYK2 are generated in-house; JAK3 was purchased from Carna biosciences, Cat #08-046) in an HTRF format biochemical assay. The reactions employs a commercial peptide substrate from Cisbio (Cat #62TK0PEC). The basic assay protocol is as follows: first, 2.5 µL of diluted compounds (4×) in DMSO are dispensed into a 384-well Optiplate. Next, 2.5 μL of enzyme (final concentrations for enzymes are: TYK2-700 ng/mL, JAK1-80.6 ng/mL, JAK2-2.1 ng/mL and JAK3-171.8 ng/mL) is added and incubated at RT for 5-20 min. Finally, 5 μl of mixture of 2×ATP [Final concentration 20 μM for TYK2, 21.43 μM for JAK1, 14.7 μM for JAK2 and 2.12 μM for JAK3]+2× Substrate [Final concentration 217 nM for TYK2, 454.7 nM for JAK1, 200 nM for JAK2 and 257.4 nM for JAK3] is added to 384 well Optiplate. Composition of Kinase assay buffer used in the assay is as follows: HEPES 50 mM, EGTA 1 mM, MgCl2 10 mM, DTT2 mM, Tween-20 0.010 and water. Then the plates are shaken and then incubated at 26.5° C. for 60 min. At the end of the incubation, 10 μL of mixture of 2× detection mix [(EU3+Cryptate (1×)+Streptavidin-XL665 (final concentration: 62.5 nM) (HTRF KinEASE-TK kit Cat #62TK0PEC)] is added to the assay plate, shaken and incubated at 26.5° C. for 60 min. Plates are then read on a Perkin Elmer Envision for HTRF signal (665 nm reading/615 nm reading). After normalization to untreated controls, the percent inhibition of the HTRF signal at each compound concentration is calculated. The plot of percent inhibition versus the log of compound concentration is fit with a 4-parameter dose response equation to calculate IC50 values.

JAK1-JH1 = molecular target: T3, JAK1-JH1 (Homo sapiens, UniProt P23458); assay: HTRF-based selectivity assay, JAK1 catalytic domain; type: biochemical; details: kinase domain (JH1), ATP 21.43 μM
T3 construct: recombinant purified His or GST-tagged catalytic domain for each enzyme; made in house
T3 sequence (P23458 875-1153 limits assumed): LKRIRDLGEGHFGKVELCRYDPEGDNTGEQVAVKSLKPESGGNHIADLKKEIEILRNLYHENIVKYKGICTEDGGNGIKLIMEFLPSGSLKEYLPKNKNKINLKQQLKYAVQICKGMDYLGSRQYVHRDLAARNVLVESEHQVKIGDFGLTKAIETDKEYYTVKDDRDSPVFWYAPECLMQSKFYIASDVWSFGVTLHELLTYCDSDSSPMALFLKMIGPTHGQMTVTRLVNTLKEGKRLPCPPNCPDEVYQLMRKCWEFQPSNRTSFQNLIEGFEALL
Method: as §2

JAK2-JH1 = molecular target: T4, JAK2-JH1 (Homo sapiens, UniProt O60674); assay: HTRF-based selectivity assay, JAK2 catalytic domain; type: biochemical; details: kinase domain (JH1), ATP 14.7 μM
T4 construct: recombinant purified His or GST-tagged catalytic domain for each enzyme; made in house
T4 sequence (O60674 849-1124 limits assumed): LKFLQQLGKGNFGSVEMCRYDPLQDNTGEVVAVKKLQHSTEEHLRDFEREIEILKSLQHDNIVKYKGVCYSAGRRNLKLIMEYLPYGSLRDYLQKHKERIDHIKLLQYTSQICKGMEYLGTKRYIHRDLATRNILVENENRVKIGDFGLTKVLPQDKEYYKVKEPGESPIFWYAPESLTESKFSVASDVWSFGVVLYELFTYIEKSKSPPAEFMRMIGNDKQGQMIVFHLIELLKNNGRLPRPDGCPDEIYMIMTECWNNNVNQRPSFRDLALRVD
Method: as §2

JAK3-JH1 = molecular target: T5, JAK3-JH1 (Homo sapiens, UniProt P52333); assay: HTRF-based selectivity assay, JAK3 catalytic domain; type: biochemical; details: kinase domain (JH1), ATP 2.12 μM
T5 construct: recombinant purified His or GST-tagged catalytic domain for each enzyme; purchased Carna biosciences 08-046
T5 sequence (P52333 822-1111 limits assumed): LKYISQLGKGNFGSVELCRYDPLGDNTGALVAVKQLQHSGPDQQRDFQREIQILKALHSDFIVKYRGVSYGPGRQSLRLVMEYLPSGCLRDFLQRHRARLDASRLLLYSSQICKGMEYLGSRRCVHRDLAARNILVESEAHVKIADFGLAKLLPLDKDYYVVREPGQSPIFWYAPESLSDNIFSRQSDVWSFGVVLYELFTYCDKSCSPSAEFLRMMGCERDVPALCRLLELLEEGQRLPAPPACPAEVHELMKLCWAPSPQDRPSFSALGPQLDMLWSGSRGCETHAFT
Method: as §2

IL-2 = assay: Selectivity assay (SEAP) IL-2 reporter cells; type: cell-based; details: Homo sapiens, IL-2 reporter cells on HEK293 background, read-out: Selectivity assays (SEAP) nM or E-Max % IL-2
IFN-γ = assay: Selectivity assay (SEAP) IFN-γ reporter cells; type: cell-based; details: Homo sapiens, IFN-γ reporter cells on HEK293 background, read-out: Selectivity assays (SEAP) nM or E-Max % IFN-γ
TYK2 [2] = molecular target: T1, TYK2; assay: HEK-Blue IL-23 reporter assay (SEAP) for TYK2 pseudokinase inhibition; type: cell-based; parameters: HEK-Blue™ IL-23 and IFNα/β cells with a stably-integrated cytokine receptor and STAT3 or STAT1; host or cells: HEK-Blue IL-23 / HEK-Blue IFNα/β cells (HEK293 background); details: HEK-Blue IL-23 cells, 10 ng/mL human recombinant IL-23, SEAP reporter; read-out: IL23 IC50
In short: as §1

T1 sequence (P29597 whole entry): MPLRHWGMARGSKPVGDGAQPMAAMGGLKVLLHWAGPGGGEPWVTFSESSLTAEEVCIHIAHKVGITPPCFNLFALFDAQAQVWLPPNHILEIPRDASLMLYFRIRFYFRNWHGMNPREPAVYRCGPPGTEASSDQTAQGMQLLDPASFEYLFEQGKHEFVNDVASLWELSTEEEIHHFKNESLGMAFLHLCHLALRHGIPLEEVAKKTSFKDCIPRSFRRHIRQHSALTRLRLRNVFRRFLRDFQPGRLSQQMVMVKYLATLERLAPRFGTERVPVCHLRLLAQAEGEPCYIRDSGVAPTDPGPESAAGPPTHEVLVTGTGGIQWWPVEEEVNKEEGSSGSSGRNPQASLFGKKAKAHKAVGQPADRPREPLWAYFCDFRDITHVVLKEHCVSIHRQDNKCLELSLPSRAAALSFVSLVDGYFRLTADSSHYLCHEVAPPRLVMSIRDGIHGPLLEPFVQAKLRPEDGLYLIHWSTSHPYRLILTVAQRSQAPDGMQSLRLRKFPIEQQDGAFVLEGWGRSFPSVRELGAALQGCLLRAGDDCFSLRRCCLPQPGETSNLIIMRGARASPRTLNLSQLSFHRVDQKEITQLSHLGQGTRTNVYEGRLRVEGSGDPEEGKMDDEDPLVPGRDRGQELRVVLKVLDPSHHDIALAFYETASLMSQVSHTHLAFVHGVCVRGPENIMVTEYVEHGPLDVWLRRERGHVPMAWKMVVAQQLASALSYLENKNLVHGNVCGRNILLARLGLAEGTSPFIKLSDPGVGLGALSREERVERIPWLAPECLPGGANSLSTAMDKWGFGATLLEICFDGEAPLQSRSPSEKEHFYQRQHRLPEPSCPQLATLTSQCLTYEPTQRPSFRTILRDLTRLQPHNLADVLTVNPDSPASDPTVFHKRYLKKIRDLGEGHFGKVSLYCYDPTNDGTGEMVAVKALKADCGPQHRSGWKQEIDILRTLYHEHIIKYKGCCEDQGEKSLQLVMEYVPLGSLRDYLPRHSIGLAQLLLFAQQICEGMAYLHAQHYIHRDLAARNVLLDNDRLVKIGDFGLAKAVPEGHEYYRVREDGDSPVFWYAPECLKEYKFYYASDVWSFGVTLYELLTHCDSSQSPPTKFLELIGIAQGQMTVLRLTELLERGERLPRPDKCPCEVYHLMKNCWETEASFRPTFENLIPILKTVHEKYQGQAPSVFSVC

COc1cccc(-n2[nH]c(=O)c3cnc(Nc4cc(C)nc(C)n4)cc32)c1F [Compound I-37, 6-((2,6-dimethylpyrimidin-4-yl)amino)-1-(2-fluoro-3-methoxyphenyl)-1,2-dihydro-3H-pyrazolo[4,3-c]pyridin-3-one]
IC50 (TYK2 [1]): < 10 µM
IC50 (TYK2-JH1): > 90 µM
IC50 (JAK1-JH1): > 90 µM
IC50 (JAK2-JH1): > 90 µM
IC50 (JAK3-JH1): > 90 µM
IC50 (IL-2): > 90000 nM
IC50 (IFN-γ): > 90000 nM
IC50 (TYK2 [2]): < 10 µM

O=c1[nH]n(-c2ccccc2)c2cc(Nc3ccc(F)cn3)ncc12 [Compound I-2, 6-((5-fluoropyridin-2-yl)amino)-1-phenyl-1,2-dihydro-3H-pyrazolo[4,3-c]pyridin-3-one]
IC50 (TYK2 [1]): < 10 µM
IC50 (TYK2-JH1): 30 to 90 µM
IC50 (JAK1-JH1): 30 to 90 µM
IC50 (JAK2-JH1): 10 to 30 µM
IC50 (JAK3-JH1): < 10 µM
IC50 (IL-2): > 90000 nM
IC50 (IFN-γ): 30000 to 90000 nM
IC50 (TYK2 [2]): < 10 µM

COc1cccc(-n2[nH]c(=O)c3cnc(Nc4ccnc(C)n4)cc32)c1 [Compound I-49, 1-(3-methoxyphenyl)-6-((2-methylpyrimidin-4-yl)amino)-1,2-dihydro-3H-pyrazolo[4,3-c]pyridin-3-one]
IC50 (TYK2 [1]): < 10 µM
IC50 (TYK2-JH1): > 90 µM
IC50 (JAK1-JH1): > 90 µM
IC50 (JAK2-JH1): > 90 µM
IC50 (JAK3-JH1): > 90 µM
IC50 (IL-2): > 90000 nM
IC50 (IFN-γ): > 90000 nM
IC50 (TYK2 [2]): < 10 µM

Cc1cc(Nc2cc3c(cn2)c(=O)[nH]n3-c2ccc(OCC(F)(F)F)cc2)nc(C)n1 [Compound I-73, 6-((2,6-dimethylpyrimidin-4-yl)amino)-1-(4-(2,2,2-trifluoroethoxy)phenyl)-1,2-dihydro-3H-pyrazolo[4,3-c]pyridin-3-one]
IC50 (TYK2 [1]): < 10 µM
IC50 (TYK2-JH1): > 90 µM
IC50 (JAK1-JH1): > 90 µM
IC50 (JAK2-JH1): > 90 µM
IC50 (JAK3-JH1): > 90 µM
IC50 (IL-2): > 90000 nM
IC50 (IFN-γ): > 90000 nM
IC50 (TYK2 [2]): < 10 µM

N#Cc1ccc(-n2[nH]c(=O)c3cnc(Nc4ccc(F)cn4)cc32)cc1Cl [Compound I-88, 2-chloro-4-(6-((5-fluoropyridin-2-yl)amino)-3-oxo-2,3-dihydro-1H-pyrazolo[4,3-c]pyridin-1-yl)benzonitrile]
IC50 (TYK2 [1]): < 10 µM
IC50 (TYK2-JH1): > 90 µM
IC50 (JAK1-JH1): > 90 µM
IC50 (JAK2-JH1): > 90 µM
IC50 (JAK3-JH1): > 90 µM
IC50 (IL-2): > 90000 nM
IC50 (IFN-γ): > 90000 nM
IC50 (TYK2 [2]): < 10 µM

Cc1cc(Nc2cc3c(cn2)c(=O)[nH]n3-c2ccc(OC(F)(F)F)cc2)nc(C)n1 [Compound I-69, 6-((2,6-dimethylpyrimidin-4-yl)amino)-1-(4-(trifluoromethoxy)phenyl)-1,2-dihydro-3H-pyrazolo[4,3-c]pyridin-3-one]
IC50 (TYK2 [1]): < 10 µM
IC50 (TYK2-JH1): > 90 µM
IC50 (JAK1-JH1): > 90 µM
IC50 (JAK2-JH1): > 90 µM
IC50 (JAK3-JH1): > 90 µM
IC50 (IL-2): > 90000 nM
IC50 (IFN-γ): > 90000 nM
IC50 (TYK2 [2]): < 10 µM

O=c1[nH]n(-c2ccc(OC(F)(F)F)c(F)c2)c2cc(Nc3ccc(F)cn3)ncc12 [Compound I-95, 1-(3-fluoro-4-(trifluoromethoxy)phenyl)-6-((5-fluoropyridin-2-yl)amino)-1,2-dihydro-3H-pyrazolo[4,3-c]pyridin-3-one]
IC50 (TYK2 [1]): < 10 µM
IC50 (TYK2-JH1): > 90 µM
IC50 (JAK1-JH1): > 90 µM
IC50 (JAK2-JH1): > 90 µM
IC50 (JAK3-JH1): > 90 µM
IC50 (IL-2): > 90000 nM
IC50 (IFN-γ): > 90000 nM
IC50 (TYK2 [2]): < 10 µM

Cc1cc(Nc2cc3c(cn2)c(=O)[nH]n3-c2ccc(OC(F)F)cc2)nc(C)n1 [Compound I-72, 1-(4-(difluoromethoxy)phenyl)-6-((2,6-dimethylpyrimidin-4-yl)amino)-1,2-dihydro-3H-pyrazolo[4,3-c]pyridin-3-one]
IC50 (TYK2 [1]): < 10 µM
IC50 (TYK2-JH1): > 90 µM
IC50 (JAK1-JH1): > 90 µM
IC50 (JAK2-JH1): > 90 µM
IC50 (JAK3-JH1): > 90 µM
IC50 (IL-2): > 90000 nM
IC50 (IFN-γ): > 90000 nM
IC50 (TYK2 [2]): < 10 µM

Cc1cc(Nc2cc3c(cn2)c(=O)[nH]n3-c2ccc(Cl)cc2)nc(C)n1 [Compound I-65, 1-(4-chlorophenyl)-6-((2,6-dimethylpyrimidin-4-yl)amino)-1,2-dihydro-3H-pyrazolo[4,3-c]pyridin-3-one]
IC50 (TYK2 [1]): > 90 µM
IC50 (TYK2-JH1): > 90 µM
IC50 (JAK1-JH1): > 90 µM
IC50 (JAK2-JH1): > 90 µM
IC50 (JAK3-JH1): > 90 µM
IC50 (IL-2): > 90000 nM
IC50 (IFN-γ): > 90000 nM
IC50 (TYK2 [2]): < 10 µM

Cc1cc(Nc2cc3c(cn2)c(=O)[nH]n3-c2ccc(OC(F)(F)F)c(F)c2)nc(C)n1 [Compound I-94, 6-((2,6-dimethylpyrimidin-4-yl)amino)-1-(3-fluoro-4-(trifluoromethoxy)phenyl)-1,2-dihydro-3H-pyrazolo[4,3-c]pyridin-3-one]
IC50 (TYK2 [1]): < 10 µM
IC50 (TYK2-JH1): > 90 µM
IC50 (JAK1-JH1): > 90 µM
IC50 (JAK2-JH1): > 90 µM
IC50 (JAK3-JH1): > 90 µM
IC50 (IL-2): > 90000 nM
IC50 (IFN-γ): > 90000 nM
IC50 (TYK2 [2]): < 10 µM

Cc1cc(Nc2cc3c(cn2)c(=O)[nH]n3-c2cccc(F)c2)nc(C)n1 [Compound I-59, 6-((2,6-dimethylpyrimidin-4-yl)amino)-1-(3-fluorophenyl)-1,2-dihydro-3H-pyrazolo[4,3-c]pyridin-3-one]
IC50 (TYK2 [1]): < 10 µM
IC50 (TYK2-JH1): > 90 µM
IC50 (JAK1-JH1): > 90 µM
IC50 (JAK2-JH1): > 90 µM
IC50 (JAK3-JH1): > 90 µM
IC50 (IL-2): > 90000 nM
IC50 (IFN-γ): > 90000 nM
IC50 (TYK2 [2]): < 10 µM
